Data published in the NIST ThermoML archive (doi:10.1021/je5010214).

Conditions: Liquid, Vibrating tube method

CCCCO [butan-1-ol]
Conditions	mass density [kg/m3]
303.15 K, 21920 kPa	817.555
303.15 K, 24992 kPa	819.44
303.15 K, 31958 kPa	823.711
303.15 K, 32862 kPa	824.267
303.15 K, 33112 kPa	824.372
303.15 K, 34081 kPa	824.9
303.15 K, 34980 kPa	825.355
303.15 K, 37951 kPa	827.164
303.15 K, 39904 kPa	828.27
303.15 K, 42014 kPa	829.398
303.15 K, 44896 kPa	831.035
303.15 K, 47951 kPa	832.781
303.15 K, 50065 kPa	833.864
303.15 K, 52073 kPa	834.942
303.15 K, 55075 kPa	836.525
303.15 K, 57989 kPa	838.099
303.15 K, 59979 kPa	839.13
303.15 K, 62052 kPa	840.165
303.15 K, 64988 kPa	841.599
303.15 K, 66030 kPa	842.119
303.16 K, 100 kPa	802.125
303.16 K, 2964.9 kPa	804.3
303.16 K, 7045.6 kPa	807.335
303.16 K, 8858.2 kPa	808.638
303.16 K, 10014 kPa	809.449
303.16 K, 18021 kPa	814.973
303.16 K, 27933 kPa	821.256
303.16 K, 29990 kPa	822.537
308.15 K, 274.3 kPa	798.317
308.15 K, 494.1 kPa	798.504
308.15 K, 803.3 kPa	798.75
308.15 K, 1039.5 kPa	798.954
308.15 K, 1916.7 kPa	799.642
308.15 K, 2980.7 kPa	800.489
308.15 K, 4990.2 kPa	802.048
308.15 K, 6964.9 kPa	803.548
308.15 K, 8864.3 kPa	804.962
308.15 K, 9863.1 kPa	805.692
308.15 K, 12009 kPa	807.267
308.15 K, 17850 kPa	811.315
308.15 K, 19930 kPa	812.759
308.15 K, 21988 kPa	814.131
308.15 K, 25012 kPa	816.144
308.15 K, 27955 kPa	817.999
308.15 K, 29906 kPa	819.191
308.15 K, 31929 kPa	820.41
308.15 K, 32886 kPa	820.911
308.15 K, 32941 kPa	821.059
308.15 K, 34011 kPa	821.636
308.15 K, 37971 kPa	823.987
308.15 K, 40011 kPa	825.154
308.15 K, 41998 kPa	826.392
308.15 K, 45017 kPa	828.081
308.15 K, 48033 kPa	829.748
308.15 K, 50044 kPa	830.856
308.15 K, 51977 kPa	831.933
308.15 K, 54982 kPa	833.542
308.15 K, 58009 kPa	835.036
308.15 K, 60030 kPa	836.098
308.15 K, 61985 kPa	837.136
308.15 K, 64981 kPa	838.691
308.16 K, 85.2 kPa	798.155
308.16 K, 15069 kPa	809.4
308.16 K, 34949 kPa	822.224
308.16 K, 66088 kPa	839.237
313.15 K, 103.1 kPa	794.254
313.15 K, 316 kPa	794.433
313.15 K, 569.6 kPa	794.643
313.15 K, 1088.8 kPa	795.074
313.15 K, 2109.7 kPa	795.902
313.15 K, 3137 kPa	796.707
313.15 K, 5111.8 kPa	798.292
313.15 K, 6921.8 kPa	799.704
313.15 K, 9210.7 kPa	801.445
313.15 K, 10209 kPa	802.164
313.15 K, 12020 kPa	803.525
313.15 K, 15059 kPa	805.716
313.15 K, 17921 kPa	807.72
313.15 K, 19932 kPa	809.082
313.15 K, 22058 kPa	810.55
313.15 K, 24862 kPa	812.41
313.15 K, 27869 kPa	814.438
313.15 K, 29957 kPa	815.731
313.15 K, 32107 kPa	817.091
313.15 K, 32980 kPa	817.674
313.15 K, 33002 kPa	817.783
313.15 K, 33981 kPa	818.214
313.15 K, 35045 kPa	818.819
313.15 K, 38127 kPa	820.76
313.15 K, 41978 kPa	822.973
313.15 K, 44946 kPa	824.676
313.15 K, 47880 kPa	826.39
313.15 K, 52097 kPa	828.677
313.15 K, 54924 kPa	830.321
313.15 K, 58082 kPa	831.994
313.15 K, 59932 kPa	832.96
313.15 K, 62004 kPa	834.048
313.15 K, 64954 kPa	835.652
313.15 K, 66113 kPa	836.222
313.16 K, 860.7 kPa	794.888
313.16 K, 39997 kPa	821.817
313.16 K, 50021 kPa	827.556
318.15 K, 72.7 kPa	790.456
318.15 K, 150.1 kPa	790.516
318.15 K, 336.3 kPa	790.675
318.15 K, 1105.7 kPa	791.334
318.15 K, 1929.1 kPa	792.026
318.15 K, 2933.2 kPa	792.866
318.15 K, 8989 kPa	797.678
318.15 K, 10075 kPa	798.523
318.15 K, 11896 kPa	799.896
318.15 K, 18102 kPa	804.461
318.15 K, 19985 kPa	805.78
318.15 K, 22094 kPa	807.257
318.15 K, 29998 kPa	812.541
318.15 K, 33016 kPa	814.458
318.15 K, 37838 kPa	817.415
318.15 K, 40093 kPa	818.817
318.15 K, 44884 kPa	821.648
318.15 K, 47944 kPa	823.402
318.15 K, 54944 kPa	827.433
318.15 K, 57972 kPa	829.016
318.15 K, 59923 kPa	830.12
318.15 K, 65022 kPa	832.785
318.15 K, 66028 kPa	833.327
318.16 K, 590.9 kPa	790.894
318.16 K, 891 kPa	791.16
318.16 K, 5020.8 kPa	794.556
318.16 K, 6926.7 kPa	796.098
318.16 K, 14800 kPa	802.072
318.16 K, 24873 kPa	809.191
318.16 K, 27909 kPa	811.139
318.16 K, 31957 kPa	813.824
318.16 K, 34110 kPa	815.009
318.16 K, 35048 kPa	815.63
318.16 K, 41996 kPa	819.89
318.16 K, 49950 kPa	824.565
318.16 K, 52037 kPa	825.741
318.16 K, 61930 kPa	831.241
323.15 K, 95 kPa	786.145
323.15 K, 296.1 kPa	786.326
323.15 K, 528.4 kPa	786.535
323.15 K, 994.2 kPa	786.944
323.15 K, 2006.9 kPa	787.814
323.15 K, 2966.6 kPa	788.632
323.15 K, 4996.2 kPa	790.328
323.15 K, 7042.1 kPa	792.001
323.15 K, 9029.9 kPa	793.564
323.15 K, 10090 kPa	794.392
323.15 K, 11914 kPa	795.8
323.15 K, 15111 kPa	798.229
323.15 K, 17981 kPa	800.333
323.15 K, 20038 kPa	801.815
323.15 K, 21995 kPa	803.198
323.15 K, 24993 kPa	805.264
323.15 K, 32079 kPa	809.955
